{"source": "paper PMC10141580", "about": "“Cyclic Dichalcogenides Extend the Reach of Bioreductive Prodrugs to Harness Thiol/Disulfide Oxidoreductases: Applications to seco-Duocarmycins Targeting the Thioredoxin System” (ACS Central Science, 2023)", "system": "panel of 140 standard cancer cell lines", "experiment": "ProliFiler-140 cancer cell line screen (CellTiterGlo, 72 h)", "format": "cell-based", "description": "Incubations were performed for 72 h before automated viability readout with CellTiterGlo (Figure 8).\nEnd of Figure S11 (part 5 of 5): ProliFiler-140 cancer cell line screening for cytotoxicity of the prodrugs.\n8-data-point dose response curves from CellTiter-Glo® viability readout.\nProliFiler-140 cell line panel part V", "note": "Where “and” joins values, the source holds several entries; their conditions need not be identical. Equal values may be shown once. Read-outs that look alike come from different tables or passages of the source.", "data": [{"compound": "COc1cc2cc(C(=O)N3C[C@@H](CCl)c4c3cc(OC(=O)N3CCN(C(=O)CCC(=O)N5CCN(C)CC5)[C@H]5CSSC[C@H]53)c3ccccc43)[nH]c2c(OC)c1OC", "note": "[P-SS66C-CBI-TMI]", "values": [{"measurement": "Reductive Activation Index", "setting": "786-O (Kidney)", "value": 4.12}, {"measurement": "Reductive Activation Index", "setting": "A172 (Brain)", "value": 5.35}, {"measurement": "Reductive Activation Index", "setting": "A375 (Skin)", "value": 3.01}, {"measurement": "Reductive Activation Index", "setting": "A427 (Lung)", "value": "19 and 18.60"}, {"measurement": "Reductive Activation Index", "setting": "A498 (Kidney)", "value": 3.19}, {"measurement": "Reductive Activation Index", "setting": "A549 (Lung)", "value": 25}, {"measurement": "Reductive Activation Index", "setting": "AsPC-1 (Pancreas)", "value": 8.2}, {"measurement": "Reductive Activation Index", "setting": "BEN (Lung)", "value": 27}, {"measurement": "Reductive Activation Index", "setting": "BT-20 (Breast)", "value": 9.1}, {"measurement": "IC50", "setting": "COV434, read-out: IC50 [M] (ProliFiler-140), COV434 (Ovary)", "value": "1.5e-08", "unit": "M"}, {"measurement": "Reductive Activation Index", "setting": "Caki-1 (Kidney)", "value": 5.18}, {"measurement": "Reductive Activation Index", "setting": "Caki-2 (Kidney)", "value": "5.62 and 5.6"}, {"measurement": "Reductive Activation Index", "setting": "Calu-6 (Lung)", "value": 5.77}, {"measurement": "Reductive Activation Index", "setting": "Colo 205 (Colon)", "value": 8.8}, {"measurement": "Reductive Activation Index", "setting": "DLD-1 (Colon)", "value": "6.33 and 6.3"}, {"measurement": "Reductive Activation Index", "setting": "EFM-19 (Breast)", "value": "3.1 and 3.08"}, {"measurement": "Reductive Activation Index", "setting": "EFM-192A (Breast)", "value": 6.6}, {"measurement": "IC50", "setting": "EFM-192A, read-out: IC50 [M] (ProliFiler-140), EFM-192A (Breast)", "value": "2.7e-07", "unit": "M"}, {"measurement": "Reductive Activation Index", "setting": "EFO-27 (Ovary)", "value": 15}, {"measurement": "Reductive Activation Index", "setting": "H4 (Brain)", "value": 5.82}, {"measurement": "Reductive Activation Index", "setting": "H460 (Lung)", "value": 9.3}, {"measurement": "Reductive Activation Index", "setting": "HCC202 (Breast)", "value": 9.8}, {"measurement": "IC50", "setting": "HCC202, read-out: IC50 [M] (ProliFiler-140), HCC202 (Breast)", "value": "9.1e-08", "unit": "M"}, {"measurement": "Reductive Activation Index", "setting": "HCC827 (Lung)", "value": 15}, {"measurement": "Reductive Activation Index", "setting": "HCC 1569 (Breast)", "value": 28}, {"measurement": "Reductive Activation Index", "setting": "HCT-15 (Colon)", "value": 3.89}, {"measurement": "Reductive Activation Index", "setting": "HEC-1-A (Endometrium)", "value": 18}, {"measurement": "Reductive Activation Index", "setting": "HEC-1-B (Endometrium)", "value": 8.3}, {"measurement": "Reductive Activation Index", "setting": "HT-29 (Colon)", "value": 9.5}, {"measurement": "Reductive Activation Index", "setting": "HeLa (Ovary)", "value": 23.88}, {"measurement": "Reductive Activation Index", "setting": "Hep3B2.1-7 (Liver)", "value": 7.8}, {"measurement": "IC50", "setting": "Homo sapiens, 786-0, read-out: IC50 [M] (ProliFiler-140), 786-O (Kidney)", "value": "2.86e-08", "unit": "M"}, {"measurement": "IC50", "setting": "Homo sapiens, A 172, read-out: IC50 [M] (ProliFiler-140), A172 (Brain)", "value": "1.07e-07", "unit": "M"}, {"measurement": "IC50", "setting": "Homo sapiens, A498, read-out: IC50 [M] (ProliFiler-140), A498 (Kidney)", "value": "9.41e-08", "unit": "M"}, {"measurement": "IC50", "setting": "Homo sapiens, A549, read-out: IC50 [M] (ProliFiler-140), A549 (Lung)", "value": "3e-08", "unit": "M"}, {"measurement": "IC50", "setting": "Homo sapiens, A2058, read-out: IC50 [M] (ProliFiler-140), A2058 (Skin)", "value": "1.1e-08", "unit": "M"}, {"measurement": "IC50", "setting": "Homo sapiens, A2780, read-out: IC50 [M] (ProliFiler-140), A2780 (Ovary)", "value": "8.1e-09", "unit": "M"}, {"measurement": "IC50", "setting": "Homo sapiens, A-375, read-out: IC50 [M] (ProliFiler-140), A375 (Skin)", "value": "5.45e-08", "unit": "M"}, {"measurement": "IC50", "setting": "Homo sapiens, A-427, read-out: IC50 [M] (ProliFiler-140), A427 (Lung)", "value": "4.4e-08", "unit": "M"}, {"measurement": "IC50", "setting": "Homo sapiens, A-431, read-out: IC50 [M] (ProliFiler-140), A431 (Skin)", "value": "2.02e-08", "unit": "M"}, {"measurement": "IC50", "setting": "Homo sapiens, ASPC1, read-out: IC50 [M] (ProliFiler-140), AsPC-1 (Pancreas)", "value": "2.6e-07", "unit": "M"}, {"measurement": "IC50", "setting": "Homo sapiens, BT-20, read-out: IC50 [M] (ProliFiler-140), BT-20 (Breast)", "value": "1.2e-07", "unit": "M"}, {"measurement": "IC50", "setting": "Homo sapiens, BXPC-3, read-out: IC50 [M] (ProliFiler-140), BxPC-3 (Pancreas)", "value": "4.64e-08", "unit": "M"}, {"measurement": "IC50", "setting": "Homo sapiens, CAKI-1, Caki-1", "value": "6.3e-08", "unit": "M"}, {"measurement": "IC50", "setting": "Homo sapiens, CAKI-1, read-out: IC50 [M] (ProliFiler-140), Caki-1 (Kidney)", "value": "6.34e-08", "unit": "M"}, {"measurement": "IC50", "setting": "Homo sapiens, CAKI-2, read-out: IC50 [M] (ProliFiler-140), Caki-2 (Kidney)", "value": "2.69e-07", "unit": "M"}, {"measurement": "IC50", "setting": "Homo sapiens, COLO 205, Colo 205", "value": "8.6e-08", "unit": "M"}, {"measurement": "IC50", "setting": "Homo sapiens, COLO 205, read-out: IC50 [M] (ProliFiler-140), Colo 205 (Colon)", "value": "8.6e-08", "unit": "M"}, {"measurement": "IC50", "setting": "Homo sapiens, COR-L279, read-out: IC50 [M] (ProliFiler-140), COR-L279 (Lung)", "value": "7.2e-09", "unit": "M"}, {"measurement": "IC50", "setting": "Homo sapiens, Calu-6, read-out: IC50 [M] (ProliFiler-140), Calu-6 (Lung)", "value": "5.93e-08", "unit": "M"}, {"measurement": "IC50", "setting": "Homo sapiens, DLD-1, read-out: IC50 [M] (ProliFiler-140), DLD-1 (Colon)", "value": "1.25e-07", "unit": "M"}, {"measurement": "IC50", "setting": "Homo sapiens, DU-145, read-out: IC50 [M] (ProliFiler-140), DU-145 (Prostate)", "value": "1.6e-08", "unit": "M"}, {"measurement": "IC50", "setting": "Homo sapiens, DV-90, read-out: IC50 [M] (ProliFiler-140), DV90 (Lung)", "value": "1.2e-08", "unit": "M"}, {"measurement": "IC50", "setting": "Homo sapiens, Detroit 562, read-out: IC50 [M] (ProliFiler-140), Detroit562 (Head/Neck)", "value": "1.88e-08", "unit": "M"}, {"measurement": "IC50", "setting": "Homo sapiens, EFM-19, read-out: IC50 [M] (ProliFiler-140), EFM-19 (Breast)", "value": "3.1e-07", "unit": "M"}, {"measurement": "IC50", "setting": "Homo sapiens, EFO-27, read-out: IC50 [M] (ProliFiler-140), EFO-27 (Ovary)", "value": "6.2e-08", "unit": "M"}, {"measurement": "IC50", "setting": "Homo sapiens, EPLC-272H, read-out: IC50 [M] (ProliFiler-140), EPLC-272H (Lung)", "value": "4.57e-08", "unit": "M"}, {"measurement": "IC50", "setting": "Homo sapiens, HCC38, read-out: IC50 [M] (ProliFiler-140), HCC38 (Breast)", "value": "1.35e-08", "unit": "M"}, {"measurement": "IC50", "setting": "Homo sapiens, HCC827, read-out: IC50 [M] (ProliFiler-140), HCC827 (Lung)", "value": "9.1e-08", "unit": "M"}, {"measurement": "IC50", "setting": "Homo sapiens, HCC1569, read-out: IC50 [M] (ProliFiler-140), HCC 1569 (Breast)", "value": "3.6e-08", "unit": "M"}, {"measurement": "IC50", "setting": "Homo sapiens, HCT-15, HCT-15", "value": "1.4e-07", "unit": "M"}, {"measurement": "IC50", "setting": "Homo sapiens, HCT-15, read-out: IC50 [M] (ProliFiler-140), HCT-15 (Colon)", "value": "1.4e-07", "unit": "M"}, {"measurement": "IC50", "setting": "Homo sapiens, HCT-116, HCT116", "value": "3.2e-08", "unit": "M"}, {"measurement": "IC50", "setting": "Homo sapiens, HCT-116, read-out: IC50 [M] (ProliFiler-140), HCT116 (Colon)", "value": "3.23e-08", "unit": "M"}, {"measurement": "IC50", "setting": "Homo sapiens, HEC-1-A, read-out: IC50 [M] (ProliFiler-140), HEC-1-A (Endometrium)", "value": "1e-07", "unit": "M"}, {"measurement": "IC50", "setting": "Homo sapiens, HEC-1B, read-out: IC50 [M] (ProliFiler-140), HEC-1-B (Endometrium)", "value": "4e-07", "unit": "M"}, {"measurement": "IC50", "setting": "Homo sapiens, HL-60, HL-60", "value": "1.5e-08", "unit": "M"}, {"measurement": "IC50", "setting": "Homo sapiens, HL-60, read-out: IC50 [M] (ProliFiler-140), HL-60 (Blood)", "value": "1.5e-08", "unit": "M"}, {"measurement": "IC50", "setting": "Homo sapiens, HT-29, HT-29", "value": "1.1e-07", "unit": "M"}, {"measurement": "IC50", "setting": "Homo sapiens, HT-29, read-out: IC50 [M] (ProliFiler-140), HT-29 (Colon)", "value": "1.1e-07", "unit": "M"}, {"measurement": "IC50", "setting": "Homo sapiens, HT-1080, read-out: IC50 [M] (ProliFiler-140), HT-1080 (Fibrosarcoma)", "value": "2.13e-08", "unit": "M"}, {"measurement": "IC50", "setting": "Homo sapiens, HeLa, read-out: IC50 [M] (ProliFiler-140), HeLa (Ovary)", "value": "9.89e-09", "unit": "M"}, {"measurement": "IC50", "setting": "Homo sapiens, Hs746T, read-out: IC50 [M] (ProliFiler-140), Hs 746T (Stomach)", "value": "7.5e-08", "unit": "M"}, {"measurement": "IC50", "setting": "Homo sapiens, HuTu80, read-out: IC50 [M] (ProliFiler-140), Hutu 80 (Duodenum)", "value": "9.56e-09", "unit": "M"}, {"measurement": "IC50", "setting": "Homo sapiens, Huh-7, read-out: IC50 [M] (ProliFiler-140), HuH7 (Liver)", "value": "1e-07", "unit": "M"}, {"measurement": "IC50", "setting": "Homo sapiens, Ishikawa, read-out: IC50 [M] (ProliFiler-140), Ishikawa (Endometrium)", "value": "3.8e-09", "unit": "M"}, {"measurement": "IC50", "setting": "Homo sapiens, JIMT-1, read-out: IC50 [M] (ProliFiler-140), JIMT-1 (Breast)", "value": "1e-07", "unit": "M"}, {"measurement": "IC50", "setting": "Homo sapiens, JVM-3, read-out: IC50 [M] (ProliFiler-140), JVM-3 (Blood)", "value": "3.36e-09", "unit": "M"}, {"measurement": "IC50", "setting": "Homo sapiens, Jurkat, read-out: IC50 [M] (ProliFiler-140), Jurkat (Blood)", "value": "6.17e-09", "unit": "M"}, {"measurement": "IC50", "setting": "Homo sapiens, K562, read-out: IC50 [M] (ProliFiler-140), K562 (Blood)", "value": "1.3e-07", "unit": "M"}, {"measurement": "IC50", "setting": "Homo sapiens, KARPAS-299, KARPAS 299 (Blood), read-out: IC50 [M] (ProliFiler-140)", "value": "1.08e-07", "unit": "M"}, {"measurement": "IC50", "setting": "Homo sapiens, KATO III, read-out: IC50 [M] (ProliFiler-140), Kato III (Stomach)", "value": "2.2e-07", "unit": "M"}]}]}
